# Results: patent US8030354B2, “Substituted biphenyl GPR40 modulators” (Amgen Inc., priority 2007, dated 2011)
# Target: GPR40 (Homo sapiens, UniProt O14842)
# Test: Cell-based aequorin assay (CHO cells stably expressing GPR40 and aequorin)
# Parameters: expressed in transfected cells; host or cells: CHO cells stably transfected with GPR40 and aequorin
# Details: activation of human GPR40, CHO cells, 0.01% HSA
# In short: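 CHO cells stably co-expressing GPR40 and aequorin, loaded with coelenterazine (1 ug/mL, 2 h, room temperature) in H/HBSS with 20 mM Hepes and 0.01% fatty acid-free HSA. Serially diluted compounds added; luminescence recorded over 20 s. EC50 from dose-response of maximum relative light units.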
# Chain of GPR40 (O14842 whole entry): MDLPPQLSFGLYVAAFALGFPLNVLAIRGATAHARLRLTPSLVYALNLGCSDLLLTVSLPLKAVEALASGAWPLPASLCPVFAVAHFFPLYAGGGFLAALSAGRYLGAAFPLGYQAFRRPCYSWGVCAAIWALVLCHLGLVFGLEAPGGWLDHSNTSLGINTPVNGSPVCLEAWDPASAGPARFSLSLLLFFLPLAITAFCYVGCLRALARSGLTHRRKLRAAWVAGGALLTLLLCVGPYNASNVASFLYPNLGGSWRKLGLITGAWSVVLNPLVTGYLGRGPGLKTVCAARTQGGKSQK
row,Compound,EC50 [nM]
1,"COc1ccc(F)c(-c2ccc(COc3cccc([C@H](CC(=O)O)C4CC4)c3)cc2C2=CCCC2(C)C)c1 (single isomer, unassigned) [Example 97.1, (3R)-3-Cyclopropyl-3-(3-(((2-(5,5-dimethyl-1-cyclopenten-1-yl)-2′-fluoro-5′-(methyloxy)-1,1′-biphenyl-4-yl)methyl)oxy)phenyl)propanoic acid or (3S)-3-cyclopropyl-3-(3-(((2-(5,5-dimethyl-1-cyclopenten-1-yl)-2′-fluoro-5′-(methyloxy)-1,1′-biphenyl-4-yl)methyl)oxy)phenyl)propanoic acid]",1000 to 10000
2,"COc1ccc(F)c(-c2ccc(COc3cccc([C@H](CC(=O)O)C4CC4)c3F)cc2[C@H]2CCCC2(C)C)c1 (single isomer, unassigned) [Example 99.3]",1000 to 10000
3,"CCC(CC(=O)O)c1cc(F)cc(OCc2ccc(-c3cc(OC)ccc3F)c(C3=CCCC3(C)C)c2)c1F (single isomer, unassigned) [Example 101.1, (3S)-3-(3-(((2-(5,5-Dimethyl-1-cyclopenten-1-yl)-2′-fluoro-5′-(methyloxy)-1,1′-biphenyl-4-yl)methyl)oxy)-2,5-difluorophenyl)pentanoic acid or (3R)-3-(3-(((2-(5,5-dimethyl-1-cyclopenten-1-yl)-2′-fluoro-5′-(methyloxy)-1,1′-biphenyl-4-yl)methyl)oxy)-2,5-difluorophenyl)pentanoic acid]",1000 to 10000
4,"COc1cccc(-c2ccc(COc3cccc(CCC(=O)O)c3)cc2C)c1 [Example 1, 3-(3-(((2-Methyl-3′-(methyloxy)-1,1′-biphenyl-4-yl)methyl)oxy)phenyl)propanoic acid]",1000 to 10000
5,"CCCCOc1ccc(OC)cc1-c1ccc(COc2cccc(CCC(=O)O)c2)cc1C [Example 4, 3-(3-(((2′-(Butyloxy)-2-methyl-5′-(methyloxy)-1,1′-biphenyl-4-yl)methyl)oxy)phenyl)propanoic acid]",1000 to 10000
6,"CCCCOc1cc(COc2cccc(CCC(=O)O)c2)ccc1-c1cc(OC)ccc1F [Example 13, 3-(3-(((2-(Butyloxy)-2′-fluoro-5′-(methyloxy)-1,1′-biphenyl-4-yl)methyl)oxy)phenyl)propanoic acid]",1000 to 10000
7,"CCOc1cccc(-c2ccc(COc3cccc(CCC(=O)O)c3)cc2C(C)(C)C)c1 [Example 41, 3-(3-(((2-(1,1-Dimethylethyl)-3′-(ethyloxy)-1,1′-biphenyl-4-yl)methyl)oxy)phenyl)propanoic acid]",1000 to 10000
8,"CSc1cccc(-c2ccc(COc3cccc(CCC(=O)O)c3)cc2C(C)(C)C)c1 [Example 61.4, 3-(3-(((2-(1,1-Dimethylethyl)-3′-(methylsulfanyl)-1,1′-biphenyl-4-yl)methyl)oxy)phenyl)propanoic acid]",1000 to 10000
9,"COc1ccc(F)c(-c2ccc(COc3cccc([C@@H](CC(=O)O)c4ccon4)c3)cc2C2=CCCC2(C)C)c1 [Example 94.1, (3R)-3-(3-(((2-(5,5-Dimethyl-1-cyclopenten-1-yl)-2′-fluoro-5′-(methyloxy)-1,1′-biphenyl-4-yl)methyl)oxy)phenyl)-3-(3-isoxazolyl)propanoic acid]",1000 to 10000
10,"COc1ccc(F)c(-c2ccc(COc3cccc([C@@H](CC(=O)O)c4ccon4)c3)cc2C(C)(C)C)c1 [Example 94.2, (3R)-3-(3-(((2-(1,1-Dimethylethyl)-2′-fluoro-5′-(methyloxy)-1,1′-biphenyl-4-yl)methyl)oxy)phenyl)-3-(3-isoxazolyl)propanoic acid]",1000 to 10000
11,"COc1ccc(F)c(-c2ccc(COc3cncc(CCC(=O)O)c3)cc2C(C)(C)C)c1 [Example 96, 3-(5-(((2-(1,1-Dimethylethyl)-2′-fluoro-5′-(methyloxy)-1,1′-biphenyl-4-yl)methyl)oxy)-3-pyridinyl)propanoic acid]",1000 to 10000
12,"COc1ccc(F)c(-c2ccc(COc3cccc(C4(CC(=O)O)CCCCC4)c3)cc2C(C)(C)C)c1 [Example 105.2, {1-[3-(2-tert-Butyl-2′-fluoro-5′-methoxy-biphenyl-4-ylmethoxy)-phenyl]-cyclohexyl}-acetic acid]",1000 to 10000

# The remaining lines, values ahead:
row,EC50 [nM],Compound
1,1000 to 10000,"COc1ccc(F)c(-c2ccc(COc3cccc(C(CC(=O)O)C4CC4)c3)cc2C2CCCC2(C)C)c1 (single isomer, unassigned) [Example 97.2]"
2,100 to 1000,"CCC(CC(=O)O)c1cccc(OCc2ccc(-c3cc(OC)ccc3F)c(C3CCCC3(C)C)c2)c1 (single isomer, unassigned) [Example 98.1]"
3,1000 to 10000,"CCC(CC(=O)O)c1cccc(OCc2ccc(-c3cc(OC)ccc3F)c(C3CCCC3(C)C)c2)c1 (single isomer, unassigned) [Example 98.2]"
4,1000 to 10000,"COc1ccc(F)c(-c2ccc(COc3cccc(C(CC(=O)O)C4CC4)c3F)cc2C2=CCCC2(C)C)c1 (single isomer, unassigned) [Example 99.1, (3R)-3-Cyclopropyl-3-(3-(((2-(5,5-dimethyl-1-cyclopenten-1-yl)-2′-fluoro-5′-(methyloxy)-1,1′-biphenyl-4-yl)methyl)oxy)-2-fluorophenyl)propanoic acid or (3S)-3-cyclopropyl-3-(3-(((2-(5,5-dimethyl-1-cyclopenten-1-yl)-2′-fluoro-5′-(methyloxy)-1,1′-biphenyl-4-yl)methyl)oxy)-2-fluorophenyl)propanoic acid]"
5,1000 to 10000,"CCC(CC(=O)O)c1cccc(OCc2ccc(-c3cc(OC)ccc3F)c(C3CCCC3(C)C)c2)c1F (single isomer, unassigned) [Example 100.1]"
6,100 to 1000,"CCC(CC(=O)O)c1cccc(OCc2ccc(-c3cc(OC)ccc3F)c(C3CCCC3(C)C)c2)c1F (single isomer, unassigned) [Example 100.2]"
7,100 to 1000,"CCC(CC(=O)O)c1cc(F)cc(OCc2ccc(-c3cc(OC)ccc3F)c(C3CCCC3(C)C)c2)c1F (single isomer, unassigned) [Example 101.2]"
8,100 to 1000,"COC[C@H](CC(=O)O)c1cccc(OCc2ccc(-c3cc(OC)ccc3F)c(C(C)(C)C)c2)c1 (single isomer, unassigned) [Example 102, (3R)-3-(3-(((2-(1,1-Dimethylethyl)-2′-fluoro-5′-(methyloxy)-1,1′-biphenyl-4-yl)methyl)oxy)phenyl)-4-(methyloxy)butanoic acid or (3S)-3-(3-(((2-(1,1-dimethylethyl)-2′-fluoro-5′-(methyloxy)-1,1′-biphenyl-4-yl)methyl)oxy)phenyl)-4-(methyloxy)butanoic acid]"
9,100 to 1000,"COc1ccc(F)c(-c2ccc(COc3cccc(CCC(=O)O)c3)cc2C)c1 [Example 2, 3-(3-(((2′-Fluoro-2-methyl-5′-(methyloxy)-1,1′-biphenyl-4-yl)methyl)oxy)phenyl)propanoic acid]"
10,100 to 1000,"COc1cccc(-c2ccc(COc3cccc(CCC(=O)O)c3)cc2C(C)(C)C)c1 [Example 40, 3-(3-(((2-(1,1-Dimethylethyl)-3′-(methyloxy)-1,1′-biphenyl-4-yl)methyl)oxy)phenyl)propanoic acid]"
11,100 to 1000,"COc1ccc(F)c(-c2ccc(COc3cccc(CCC(=O)O)c3)cc2C2CCCC2(C)C)c1 (centres unmarked) [Example 61.1, 3-(3-(((2-(2,2-Dimethylcyclopentyl)-2′-fluoro-5′-(methyloxy)-1,1′-biphenyl-4-yl)methyl)oxy)phenyl)propanoic acid]"
